# Measurements from ChEMBL document CHEMBL3046417 (2009).
# Calls of active or inactive are those of the source. The rule behind the calls is not given here.
# Legend:
# [1] = system: Cnaphalocrocis medinalis; test: Reduction of fecundity in third-instar of Cnaphalocrocis medinalis in IR20 rice plant leaf at 25 ppm relative to control; type: functional; parameters: scale not given: the % may be the effect or the level left
# [2] = system: Cnaphalocrocis medinalis; test: Reduction of fecundity in third-instar of Cnaphalocrocis medinalis in IR20 rice plant leaf at 6 ppm relative to control; type: functional; parameters: scale not given: the % may be the effect or the level left
# [3] = system: Cnaphalocrocis medinalis; test: Reduction of fecundity in third-instar of Cnaphalocrocis medinalis in IR20 rice plant leaf at 3 ppm relative to control; type: functional; parameters: scale not given: the % may be the effect or the level left
# [4] = system: Cnaphalocrocis medinalis; test: Reduction of larval normal weight gain time in third-instar of Cnaphalocrocis medinalis in IR20 rice plant leaf at 12 ppm after 25 days (reference value: 23.5 +/- 0.56 days); type: functional
# [5] = system: Cnaphalocrocis medinalis; test: Reduction of larval normal weight gain time in third-instar of Cnaphalocrocis medinalis in IR20 rice plant leaf at 6 ppm after 25 days (reference value: 23.5 +/- 0.56 days); type: functional
# [6] = system: Cnaphalocrocis medinalis; test: Reduction of larval normal weight gain time in third-instar of Cnaphalocrocis medinalis in IR20 rice plant leaf at 3 ppm after 25 days (reference value: 23.5 +/- 0.56 days); type: functional
# [7] = system: Cnaphalocrocis medinalis; test: Reduction of larval weight gain in third-instar of Cnaphalocrocis medinalis in IR20 rice plant leaf at 6 ppm after 25 days; type: functional
# [8] = system: Cnaphalocrocis medinalis; test: Reduction of larval weight gain in third-instar of Cnaphalocrocis medinalis in IR20 rice plant leaf at 6 ppm after 48 hr (reference value: 23.7 mg); type: functional
# [9] = system: Cnaphalocrocis medinalis; test: Reduction of larval weight gain in third-instar of Cnaphalocrocis medinalis in IR20 rice plant leaf at 12 ppm after 48 hr (reference value: 23.7 mg); type: functional
# [10] = system: Cnaphalocrocis medinalis; test: Reduction of larval weight gain in third-instar of Cnaphalocrocis medinalis in IR20 rice plant leaf at 3 ppm after 48 hr (reference value: 23.7 mg); type: functional
# [11] = system: Cnaphalocrocis medinalis; test: Antifeedant activity against fourth-instar of Cnaphalocrocis medinalis in IR20 rice plant leaf assessed as leaf scraped at 12 ppm after 48 hr; type: functional, organism-based
# [12] = system: Cnaphalocrocis medinalis; test: Antifeedant activity against fourt-instar of Cnaphalocrocis medinalis in IR20 rice plant leaf assessed as leaf scraped at 1.5 ppm after 24 hr; type: functional
# [13] = system: Cnaphalocrocis medinalis; test: Antifeedant activity against fourth-instar of Cnaphalocrocis medinalis in IR20 rice plant leaf assessed as leaf scraped at 12 ppm after 24 hr; type: functional
# [14] = system: Cnaphalocrocis medinalis; test: Antifeedant activity against fourth-instar of Cnaphalocrocis medinalis in IR20 rice plant leaf at 12 ppm after 4 days; type: functional, organism-based
# [15] = system: Cnaphalocrocis medinalis; test: Antifeedant activity against fourth-instar of Cnaphalocrocis medinalis in IR20 rice plant leaf at 1.5 to 3 ppm after 4 days; type: functional, organism-based
# [16] = system: Cnaphalocrocis medinalis; test: Antifeedant activity against fourth-instar of Cnaphalocrocis medinalis in IR20 rice plant leaf at 6 ppm after 4 days; type: functional
# [17] = system: Cnaphalocrocis medinalis; test: Reduction of egg fertility in third-instar of Cnaphalocrocis medinalis in IR20 rice plant leaf assessed as oviposition deterrence index at 6 to 12 ppm; type: functional, organism-based
# [18] = system: Cnaphalocrocis medinalis; test: Reduction of egg production in third-instar of Cnaphalocrocis medinalis in IR20 rice plant leaf assessed as oviposition deterrence index at 12 ppm relative to control; type: functional; parameters: scale not given: the % may be the effect or the level left
# [19] = system: Cnaphalocrocis medinalis; test: Reduction of egg production in third-instar of Cnaphalocrocis medinalis in IR20 rice plant leaf assessed as oviposition deterrence index at 6 ppm relative to control; type: functional; parameters: scale not given: the % may be the effect or the level left
smiles,measurement,setting,value
CC(C)=CC(=O)C[C@@H](C)[C@H]1CC[C@@]2(C)[C@@H]3CC[C@@H]4[C@@]5(CC(=O)OC[C@@]4(C)C(=O)O)C[C@@]35CC[C@]12C [BEDDOMEILACTONE],Activity,[1],3%
same,Activity,[2],19%
same,Activity,[3],39%
same,Time,[4],48.3 days
same,Time,[5],39.2 days
same,Time,[6],37.2 days
same,Activity,[7],12.1 mg
same,Activity,[8],10.2 mg
same,Activity,[9],7.2 mg
same,Activity,[10],13.6 mg
same,Activity,[11],Active
same,Activity,[12],8.97 cm2
same,Activity,[13],0.87 cm2
same,Activity,[14],Active
same,Activity,[15],Active
same,Activity,[16],80%
same,Activity,[17],Active
same,Activity,[18],83%
same,Activity,[19],60%
